The METLIN SMRT retention time set (Domingo-Almenara et al. 2019)

Assay: gradient 5% acetonitrile 3 min, to 50% in 2 min, to 85% in 15 min, held 3 min, 100 µL/min
Details: column: Zorbax Extend-C18 2.1 x 50 mm; eluents: water / acetonitrile, 0.1% formic acid
Summary of the method: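 Values are retention times taken from adduct peaks that software picked and an analyst inspected. The pure standards were run as mixtures of ~100 molecules on HPLC linked to a quadrupole time-of-flight mass spectrometer, in positive and negative ionization mode. A Zorbax Extend-C18 column (2.1 × 50 mm, 1.8 μm) was used at 100 μL/min with water and acetonitrile, each including 0.1% formic acid.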

| RP-LC retention time [s] | Compound |
| --- | --- |
| 922 | CCCc1noc(-c2ccc3nnc(CC(=O)NC4CCCC4)n3c2)n1 |
| 1110 | COc1ccc(NC(=O)Cc2c(C)nn(-c3nc(-c4ccccc4)cs3)c2C)cc1 |
| 652 | COc1ccc(-c2noc(CNC(=O)c3cc(C)nc4ccccc34)n2)cc1OC |
| 790 | Cc1ccc(C2=NC3(CCN(C(=O)c4ccc5[nH]ccc5c4)CC3)ON2)cc1 |
| 779 | O=C(CCn1c(N2CCCC2)nc2ccsc2c1=O)NCc1ccc(F)cc1F |
| 756 | COc1ncc(C(=O)Nc2cc(C)ccc2F)c(C)n1 |
| 858 | CCOC(=O)N1CCN(S(=O)(=O)c2ccc(OCC)cc2OCC)CC1 |
| 915 | O=C(Cn1ccc2ccc(N3CCOCC3)nc21)NCc1ccc(Br)cc1 |
| 749 | COc1cc(-c2noc(Cn3ccn(-c4ccccc4)c(=O)c3=O)n2)cc(OC)c1OC |
| 912 | CCOCCCNC(=O)c1ccc(OCc2nnc(C(=O)Nc3ccc(F)c(F)c3)s2)cc1 |
| 684 | COc1ccccc1NC(=O)NCC(O)c1ccsc1 (centres undefined) |
| 771 | CNC(=O)c1cc2cc(Br)ccc2[nH]1 |
| 1170 | Cc1cccc(N2CCN(C(=O)c3ccc4c(c3)N(C)C(=O)C3CCCCN43)CC2)c1C (centres undefined) |
| 822 | Cc1ccccc1Nc1c(-c2ccc(N3CCOCC3)cc2)nc2cnccn12 |
| 917 | C=CCn1c(=O)c2c(nc3n2CCCCN3c2ccc(OCC)cc2)n(C)c1=O |
| 690 | O=C(Nc1cccn2ncnc12)c1cccs1 |
| 850 | CCCC(=O)NC1(c2nc(C(C)C)no2)CCCCC1 |
| 645 | Cc1noc(CN2CCN(C3CCN(Cc4ccc(C(F)(F)F)cc4)C3)C2=O)n1 (centres undefined) |
| 1220 | Cc1ccc(-c2noc(Cn3c(=O)n(C(C)C)c(=O)c4ccccc43)n2)cc1C |
| 710 | CCc1nnc2ccc(NC(=O)Nc3ccc(C)cc3)cn12 |
| 998 | CC(CCc1ccccc1)NC(=O)C1CCN(c2cc(Oc3ccccc3)ncn2)CC1 (centres undefined) |
| 684 | Cc1cccc(-c2ncccc2CNS(=O)(=O)Cc2ccccc2)c1 |

| RP-LC retention time [s] | Compound |
| --- | --- |
| 844 | COC(=O)C1=C(C)NC(C)=C(C(=O)OC2CCCN(Cc3ccccc3)C2)C1c1cccc([N+](=O)[O-])c1 (centres undefined) |
| 792 | Cn1cc(C2=CCN(C(=O)Nc3ccc(F)cc3F)CC2)c2cccnc21 |
| 952 | Cc1ccc2oc(=O)n(Cc3noc(C(=O)NCc4ccc(Br)cc4)n3)c2c1 |
| 630 | O=C(c1cc2ccccc2[nH]1)N1CCN(c2cc(-c3cccnc3)[nH]n2)CC1 |
| 1390 | CCc1nc(-c2cccc(-c3noc(COc4cccc(C)c4)n3)c2)cs1 |
| 587 | CN1C(=O)[C@H]2CN(Cc3ccc(F)cc3F)C[C@H]2C1=O |
| 721 | COCCN1C(=O)CCc2cc(NC(=O)c3ccc(Br)o3)ccc21 |
| 624 | O=C(Nc1ccccc1)C1(CCO)CCN(Cc2ccccc2)C1 (centres undefined) |
| 782 | O=C(CSc1nc(-c2ccccc2)c(NC(=O)c2cccs2)s1)NC1CC1 |
| 619 | CCC(C(=O)N1CCN(CC)CC1)n1c2ccccc2c2cnn(C)c(=O)c21 (centres undefined) |
| 1050 | CCOC(=O)c1cccc(NC(=O)c2cnc(-c3ccc(C)cc3)nc2-c2ccncc2)c1 |
| 1080 | Cc1nc(-c2ccc3c(c2)CCN3C(=O)COc2ccc(Cl)cc2)cs1 |
| 586 | CC1(C)CC(=O)c2cn(-c3ccccc3)c(=O)c(C(=O)N3CCN(C4CCCCC4)CC3)c2C1 |
| 653 | O=C(Nc1ccc(Cl)cc1)c1cccnc1-n1cc(-c2ccncc2)cn1 |
| 704 | COc1ccc(Cn2c(C)c(CNCCc3ccco3)c(C(=O)O)c2C)cc1 |
| 851 | COc1ccc(CC(=O)N2CCN(c3ccc(-c4nc(C)cs4)cn3)CC2)cc1 |
| 906 | O=C1C2N=NN(Cc3nc(-c4ccccc4)no3)C2C(=O)N1c1ccccc1 (centres undefined) |
| 1110 | CC(C)c1ccc(C(O)Cn2ccn3nc(-c4ccc(F)cc4)cc3c2=O)cc1 (centres undefined) |
| 1170 | Nc1nc(-c2ccc(Cl)cc2)nn1C(=O)c1ccc(Cl)cc1 |
| 693 | CC1CCN(C(=O)c2cc(S(=O)(=O)N(C)CC(=O)NC3CC3)cn2C)CC1 |
| 616 | O=C(NCCN1CCOCC1)c1nc2ccccn2c1-c1ccc(F)cc1 |

Further lines, the compound ahead of its results:

| Compound | RP-LC retention time [s] |
| --- | --- |
| CN1C(=O)c2cc(C(=O)NCc3ccccc3)nn2CC1(C)C(=O)NC1CCCCCC1 (centres undefined) | 791 |
| COc1ccc(-c2noc(-c3nc(-c4ccccn4)no3)n2)cc1 | 966 |
| Cc1cc(C)c(S(=O)(=O)N2CC(c3nc(Cc4ccccc4)no3)C2)cc1C | 1190 |
| COc1ccc(C)cc1NC(=O)N1C[C@@H]2C[C@H](NC(=O)c3cccs3)[C@H]1C2 | 827 |
| O=C(c1ccc2ncnc(N3CCCC3)c2c1)N1CCN(c2ccccc2F)CC1 | 659 |
| CCn1c(C(=O)Nc2ccc(C)cc2C)cc2sc(Cl)cc21 | 1240 |
| O=c1c2nnn(-c3cccc(F)c3)c2ncn1Cc1cccnc1 | 587 |
| CN(C)c1cccc(-c2nc(-c3ccc4c(c3)nnn4CCN3CCOCC3)no2)c1 | 706 |
| Cc1nnc2ccc(S(=O)(=O)Nc3ccc4c(c3)OCO4)cn12 | 669 |
| CNC(=O)NCC(c1ccc(F)cc1)c1c[nH]c2ccccc12 (centres undefined) | 782 |
| COc1cccc(-c2n[nH]c3c2C(c2ccc(OC)cc2OC)NC3=O)c1 (centres undefined) | 753 |
| COCCN1C(=O)c2cccn2CC1CNS(=O)(=O)c1ccc2c(c1)C(C)(C)C(=O)N2 (centres undefined) | 652 |
| Cc1ccnc(N2CCC(C(=O)N3CCN(Cc4ccc5c(c4)OCO5)CC3)CC2)n1 | 590 |
| Cc1nc(N2CCOCC2)cc(N2CCN(C(=O)c3cccs3)CC2)n1 | 607 |
| C[C@H]1CN(C(=O)Nc2ccc(Cl)cc2)C[C@@H]1c1nc(-c2cccnc2)no1 | 863 |
| CN1C(=C=Cc2cc(I)c(O)c(I)c2)C(C)(C)c2ccccc21 | 890 |
| CCCCn1c(=O)c2ccccc2n(Cc2nc(-c3ccccc3C)no2)c1=O | 1240 |
| CCN(CC)c1ncc2c(n1)CCC(C(=O)Nc1ccc(C(=O)OC)cc1)C2 (centres undefined) | 736 |
| COC(=O)c1c(C)[nH]c(C(=O)N2CCCC(C(=O)N3CCN(c4ccccc4)CC3)C2)c1C (centres undefined) | 790 |
| CC(C)n1cc(S(=O)(=O)N2CCN(c3ccccc3)CC2)c2cccnc21 | 1070 |
| CCN1CCN(C(=O)CN2C(=O)C3CCCCN3c3ccc(C(=O)N4CCCCC4)cc32)CC1 (centres undefined) | 632 |
| COc1cc(CC(=O)N2CCN(c3cc(C)n4cnnc4n3)CC2)cc(OC)c1 | 607 |
| O=C(Nc1nc(-c2ccc(Br)cc2)cs1)c1cccc(-n2cnnc2)n1 | 884 |

| Compound | RP-LC retention time [s] |
| --- | --- |
| CCN(CC)C(=O)c1ccc2c(c1)nnn2CCNC(=O)NC(C)(C)C | 658 |
| Oc1c(C(Nc2ccccn2)c2ccccc2F)ccc2cccnc12 (centres undefined) | 604 |
| COC(=O)c1ccc2c(=O)n(-c3cc(OC)cc(OC)c3)c(N3CCN(C(C)C)CC3)nc2c1 | 668 |
| O=C(C1CCCC1)N1CCCC(c2nn[nH]n2)C1 (centres undefined) | 636 |
| Cc1c(C(=O)O)nnn1Cc1cccc(C(F)(F)F)c1 | 744 |
| COc1cccc(NC(=O)CC(=O)Nc2ccc3nc4n(c(=O)c3c2)CCCCC4)c1 | 1210 |
| CCn1cnc(S(=O)(=O)N2CCCC(C(=O)Nc3ccc(F)cc3F)C2)c1 (centres undefined) | 742 |
| CCc1ccccc1NC(=O)c1nnn(-c2ccc3noc(-c4ccccc4)c3c2)c1C | 1160 |
| O=C(NCCN1CCCC1)C1CCN(c2cnn(CC3CC3)c(=O)c2)C1 (centres undefined) | 577 |
| CCOC(=O)Cc1csc(NC(=O)C2CCN(c3cc(-n4ccnc4)ncn3)CC2)n1 | 576 |
| Cc1ccc(S(=O)(=O)N2CCOCC2)cc1-c1nnc(-c2ccccc2Cl)o1 | 951 |
| COCc1nc2cccnc2n1C1CCN(C(=O)Nc2ccc(Br)cc2F)CC1 | 746 |
| CC(C)n1cnc(S(=O)(=O)N2CCC(C(=O)NCCCc3ccccc3)CC2)c1 | 764 |
| CCc1ccc2nc(C)cc(C(N)=O)c2c1 | 561 |
| O=C(Nc1cc(-c2cccc(F)c2)no1)C1CCCN(c2ncnc3c2nc2n3CCCCC2)C1 (centres undefined) | 991 |
| O=C(O)CNC(=O)C1CCCN(S(=O)(=O)c2ccc(F)cc2)C1 (centres undefined) | 634 |
| CC1(C)NC(=O)N(CCC(=O)N2CCC(c3nc(C4CCOCC4)no3)C2)C1=O (centres undefined) | 604 |
| COc1cc(NC(=O)C2CCN(S(=O)(=O)c3c(C)nn(-c4ccccc4)c3C)CC2)cc(OC)c1 | 848 |
| CCOc1nc2ccccc2nc1N1CCCC(C(=O)Nc2cc(Cl)ccc2C)C1 (centres undefined) | 1310 |
| CCCS(=O)(=O)N1CCCc2cc(NC(=O)Nc3cccc(OC)c3OC)ccc21 | 908 |
| COc1ccccc1N1CCN(CCN2C(=O)N=C3C(=Nc4ccccc43)C2=O)CC1 | 705 |
| COc1nccnc1N1CCC(NC(=O)CCc2c(C)noc2C)C1 (centres undefined) | 606 |
| CCC(CC)C(=O)Nc1cccc(C(=O)Nc2nc(-c3ccccc3)cs2)c1 | 1070 |
